Measured values from ChEMBL document CHEMBL6092162, “Identification of novel and potent triazoles targeting CYP51 for antifungal: Design, synthesis, and biological study” (Eur J Med Chem, 2024).
Converted amounts (≈) assume the structure as drawn. The source made the active and inactive calls. The calls are words filed in the database; no cut-off is given here.

Columns and labels:
Candida albicans [1] = assay: Effect on sterol composition in Candida albicans SC5314 assessed as 14alpha-demethyllanosterol content at 0.0625 microg/ml measured after 16 hrs by GC-MS analysis (reference value: 1.98 %); type: functional; conditions: dose 0.0625 µg/ml
Candida albicans [2] = assay: Antibiofilm activity against fluconazole-resistant Candida albicans CPCC400616 assessed as inhibition of metabolic activity of biofilm measured after 24 hrs by XTT reduction assay; type: functional
[3] = Half-life in Sprague-Dawley rat at 3 mg/kg, iv by LC-MS/MS analysis; type: ADME, organism-based; conditions: in vivo
Candida albicans [4] = assay: Antifungal activity against fluconazole-resistant Candida albicans clinical isolate 311 assessed as inhibition of fungal growth by CLSI M27-A3 guidelines based method; type: functional
Candida albicans [5] = assay: Antifungal activity against fluconazole and iodiconazole resistant Candida albicans clinical isolate 17# assessed as inhibition of fungal growth by CLSI M27-A3 guidelines based method; type: functional
Candida albicans [6] = assay: Fungicidal activity against Candida albicans SC5314 incubated for 48 hrs by SDA plate based method; type: functional
[7] = Half-life in Sprague-Dawley rat at 10 mg/kg, po by LC-MS/MS analysis; type: ADME, organism-based; conditions: in vivo
[8] = Apparent volume of distribution in Sprague-Dawley rat at 3 mg/kg, iv by LC-MS/MS analysis; type: ADME, organism-based; conditions: in vivo
Candida albicans [9] = assay: Antifungal activity against fluconazole-resistant Candida albicans clinical isolate 632 assessed as inhibition of fungal growth by CLSI M27-A3 guidelines based method; type: functional
[10] = Tmax in Sprague-Dawley rat at 3 mg/kg, iv by LC-MS/MS analysis; type: ADME, organism-based; conditions: in vivo
[11] = Selectivity index, ratio of IC50 for HEK293T cells to MIC80 for Candida albicans SC5314; type: toxicity, cell-based; conditions: human, HEK293T cells versus Candida albicans SC5314; read-out: Selectivity Index
Candida albicans [12] = assay: Antibiofilm activity against fluconazole-resistant Candida albicans CPCC400616 assessed as inhibition of metabolic activity of biofilm measured after 48 hrs by XTT reduction assay; type: functional
[13] = Cmax in Sprague-Dawley rat at 3 mg/kg, iv by LC-MS/MS analysis; type: ADME, organism-based; conditions: in vivo
Candida albicans [14] = assay: Antifungal activity against Candida albicans SC5314 assessed as inhibition of fungal growth by CLSI M27-A3 guidelines based method; type: functional
[15] = Cytotoxicity against HEK293T cells assessed as inhibition of cell growth incubated for 72 hrs by MTT assay; type: toxicity, cell-based, HEK-293T; conditions: human
Pichia kudriavzevii = assay: Antifungal activity against Candida krusei GIM 2.1 assessed as inhibition of fungal growth by CLSI M27-A3 guidelines based method; type: functional
[16] = MRT (0 to t) in Sprague-Dawley rat at 10 mg/kg, po by LC-MS/MS analysis; type: ADME, organism-based; conditions: in vivo
Candida albicans [17] = assay: Antibiofilm activity against fluconazole-resistant Candida albicans CPCC400616 assessed as inhibition of metabolic activity of biofilm measured after 6 hrs by XTT reduction assay; type: functional
Candida albicans [18] = assay: Effect on sterol composition in Candida albicans SC5314 assessed as obtusifoliol content at 0.0625 microg/ml measured after 16 hrs by GC-MS analysis relative to control; type: functional; conditions: dose 0.0625 µg/ml
Candida albicans [19] = assay: Antifungal activity against fluconazole-resistant Candida albicans clinical isolate 103 assessed as inhibition of fungal growth by CLSI M27-A3 guidelines based method; type: functional
[20] = Cmax in Sprague-Dawley rat at 10 mg/kg, po by LC-MS/MS analysis; type: ADME, organism-based; conditions: in vivo
Candida albicans [21] = assay: Selectivity ratio of MFC for fungicidal activity against Candida albicans SC5314 to MIC80 for antifungal activity against Candida albicans SC5314; type: functional
Candida albicans [22] = assay: Antibiofilm activity against Candida albicans CPCC400616 assessed as inhibition of morphological transformation by measuring disappearance of mycelium at 2 microg/ml incubated for 4 hrs by microscopic photograph analysis; type: functional, organism-based; conditions: dose 2.0 µg/ml
[23] = Oral bioavailability in Sprague-Dawley rat at 10 mg/kg by LC-MS/MS analysis; type: ADME, organism-based; conditions: in vivo
Candida albicans [24] = assay: Antifungal activity against Candida albicans GIM 2.194 assessed as inhibition of fungal growth by CLSI M27-A3 guidelines based method; type: functional
Candida albicans [25] = assay: Effect on sterol composition in Candida albicans SC5314 assessed as lanosterol content at 0.0625 microg/ml measured after 16 hrs by GC-MS analysis relative to control; type: functional; conditions: dose 0.0625 µg/ml
Candida albicans [26] = assay: Fungicidal activity against fluconazole and iodiconazole resistant Candida albicans clinical isolate 17# incubated for 48 hrs by SDA plate based method; type: functional
Candida tropicalis = assay: Antifungal activity against Candida tropicalis GIM 2.183 assessed as inhibition of fungal growth by CLSI M27-A3 guidelines based method; type: functional
[27] = AUC (0 to t) in Sprague-Dawley rat at 10 mg/kg, po by LC-MS/MS analysis; type: ADME, organism-based; conditions: in vivo
Candida albicans [28] = assay: Fungicidal activity fluconazole and iodiconazole resistant Candida albicans clinical isolate 17# assessed as reduction in viable colony count at 0.5 microg/ml measured within 24 hrs by time-kill kinetics assay; type: functional, organism-based; conditions: dose 0.5 µg/ml
Nakaseomyces glabratus = assay: Antifungal activity against Candida glabrata assessed as inhibition of fungal growth by CLSI M27-A3 guidelines based method; type: functional
Candida albicans [29] = assay: Effect on sterol composition in Candida albicans SC5314 assessed as other sterols content at 0.0625 microg/ml measured after 16 hrs by GC-MS analysis (reference value: 1.06 %); type: functional; conditions: dose 0.0625 µg/ml
Candida albicans [30] = assay: Antifungal activity against fluconazole-resistant Candida albicans CaR assessed as inhibition of fungal growth by CLSI M27-A3 guidelines based method; type: functional
Candida parapsilosis = assay: Antifungal activity against Candida parapsilosis GIM 2.190 assessed as inhibition of fungal growth by CLSI M27-A3 guidelines based method; type: functional; conditions: Lodderomyces parapsilosis
Candida albicans [31] = assay: Antifungal activity against fluconazole-resistant Candida albicans clinical isolate 100 assessed as inhibition of fungal growth by CLSI M27-A3 guidelines based method; type: functional
Candida albicans [32] = assay: Antifungal activity against fluconazole-resistant Candida albicans clinical isolate 904 assessed as inhibition of fungal growth by CLSI M27-A3 guidelines based method; type: functional
[33] = MRT(0 to t) in Sprague-Dawley rat at 3 mg/kg, iv by LC-MS/MS analysis; type: ADME, organism-based; conditions: in vivo
[34] = Cytotoxicity against human OVCAR-3 cells assessed as inhibition of cell growth incubated for 72 hrs by MTT assay; type: toxicity, cell-based
Candida albicans [35] = assay: Antifungal activity against fluconazole-resistant Candida albicans clinical isolate 901 assessed as inhibition of fungal growth by CLSI M27-A3 guidelines based method; type: functional
Candida albicans [36] = assay: Effect on sterol composition in Candida albicans SC5314 assessed as eburicol content at 0.0625 microg/ml measured after 16 hrs by GC-MS analysis relative to control; type: functional; conditions: dose 0.0625 µg/ml
[37] = Tmax in Sprague-Dawley rat at 10 mg/kg, po by LC-MS/MS analysis; type: ADME, organism-based; conditions: in vivo
[38] = Cytotoxicity against human NCI-H460 cells assessed as inhibition of cell growth incubated for 72 hrs by MTT assay; type: toxicity, cell-based
Candida albicans [39] = assay: Selectivity ratio of MFC for fungicidal activity against fluconazole and iodiconazole resistant Candida albicans clinical isolate 17# to MIC80 for antifungal activity against fluconazole and iodiconazole resistant Candida albicans clinical isolate 17#; type: functional
Candida albicans [40] = assay: Effect on sterol composition in Candida albicans SC5314 assessed as ergosterol content at 0.0625 microg/ml measured after 16 hrs by GC-MS analysis (reference value: 96.96 %); type: functional; conditions: dose 0.0625 µg/ml
Candida albicans [41] = assay: Fungicidal activity fluconazole and iodiconazole resistant Candida albicans clinical isolate 17# assessed as reduction in viable colony count measured for 24 hrs by time-kill kinetics assay; type: functional, organism-based
[42] = Cytotoxicity against HUVEC cells assessed as inhibition of cell growth incubated for 72 hrs by MTT assay; type: toxicity, cell-based; conditions: human
[43] = AUC (0 to t) in Sprague-Dawley rat at 3 mg/kg, iv by LC-MS/MS analysis; type: ADME, organism-based; conditions: in vivo

**Q.** Which results are given for `CN(Cc1ccc(N2CCN(Cc3ccc(F)cc3Br)CC2)cc1)CC(O)(Cn1cncn1)c1ccc(F)cc1F` (configuration not stated)?
**A.** Activity (Candida albicans [1]): 2.78%; MIC50 (Candida albicans [2]): 2 µg/mL (≈ 3.18 µM); t1/2 [3]: 22.2 min; MIC80 (Candida albicans [4]): 8 µg/mL (≈ 12.7 µM); MIC80 (Candida albicans [5]): 0.063 µg/mL (≈ 0.1 µM); MFC (Candida albicans [6]): 0.031 µg/mL (≈ 0.0492 µM); half-life [7]: 67.2 min; Vz [8]: 4.89 L/kg; MIC80 (Candida albicans [9]): 8 µg/mL (≈ 12.7 µM); Tmax [10]: 4.98 min; Selectivity ratio [11]: 798; MIC50 (Candida albicans [12]): 8 µg/mL (≈ 12.7 µM); Cmax [13]: 535 ng/mL; MIC80 (Candida albicans [14]): 6 ng/mL (≈ 0.00953 µM); IC50 at 72 h [15]: 4.99 µM; MIC80 (Pichia kudriavzevii): 0.1 µg/mL (≈ 0.159 µM); MRT last [16]: 1.12 h; MIC50 (Candida albicans [17]): 0.5 µg/mL (≈ 0.794 µM); Activity (Candida albicans [18]): 14.81%; MIC80 (Candida albicans [19]): 4 µg/mL (≈ 6.35 µM); Cmax [20]: 10.6 ng/mL; Selectivity ratio (Candida albicans [21]): 5; Activity (Candida albicans [22]): Active; bioavailability [23]: 1.66%; MIC80 (Candida albicans [24]): 0.013 µg/mL (≈ 0.0207 µM); Activity (Candida albicans [25]): 10.55%; MFC (Candida albicans [26]): 0.063 µg/mL (≈ 0.1 µM); MIC80 (Candida tropicalis): 6 ng/mL (≈ 0.00953 µM); AUC(0-t) [27]: 14.4 ng·h/mL; Activity (Candida albicans [28]): Active; MIC80 (Nakaseomyces glabratus): 0.1 µg/mL (≈ 0.159 µM); Activity (Candida albicans [29]): 4.47%; MIC80 (Candida albicans [30]): 0.063 µg/mL (≈ 0.1 µM); MIC80 (Candida parapsilosis): 6 ng/mL (≈ 0.00953 µM); MIC80 (Candida albicans [31]): 2 µg/mL (≈ 3.18 µM); MIC80 (Candida albicans [32]): 8 µg/mL (≈ 12.7 µM); MRT last [33]: 28.7 min; IC50 at 72 h [34]: 7.72 µM; MIC80 (Candida albicans [35]): > 64 µg/mL; Activity (Candida albicans [36]): 65.56%; Tmax [37]: 1 h; IC50 at 72 h [38]: 5.22 µM; Selectivity ratio (Candida albicans [39]): 1; Activity (Candida albicans [40]): 1.83%; Activity (Candida albicans [41]): Dose-dependent-effect; Much More Effective Than Iodiconazole; IC50 at 72 h [42]: > 10 µM; AUCt [43]: 324 ng·h/mL
